# According to patent KR20100075412A, “방사성 세포 표지자” (경북대학교 산학협력단, priority 2008, dated 2010):
# Like-named read-outs stand apart in the source and are kept apart here.
# Assays:
# SCC-7 cells = experiment: Cell labelling with [131I]OIB / [131I]HIB, SCC-7 cells; assay type: cell-based; details: SCC-7, in PBS, centrifuged and washed several times
# HeLa cells = experiment: Cell labelling with [131I]OIB / [131I]HIB, HeLa cells; assay type: cell-based; details: in PBS, centrifuged and washed several times
# H9C2 cells = experiment: Cell labelling with [131I]OIB / [131I]HIB, H9C2 cells; assay type: cell-based; details: H9C2, in PBS, centrifuged and washed several times
# L6 cells = experiment: Cell labelling with [131I]OIB / [131I]HIB, L6 cells; assay type: cell-based, rat; details: for cell labelling yield: L6, in PBS, centrifuged and washed several times
# 4T1 cells = experiment: Cell labelling with [131I]OIB / [131I]HIB, 4T1 cells; assay type: cell-based; details: 4T1, in PBS, centrifuged and washed several times
# labelled cells [표지한 세포] = experiment: MicroPET imaging after tail vein injection of [124I]HIB-labelled cells; assay type: in vivo; details: mouse, imaged for 2 h after injection, for 2 h at 18 h, and up to 66 h (about 3 days)
# [1] = MicroPET imaging after tail vein injection of [124I]HIB; assay type: in vivo; details: mouse
# cells [세포] = details: cited from earlier work
# [2] = tested on: rat cardiomyocytes L6 [랫트(rat) 심근세포 L6]; experiment: Gamma camera imaging of labelled L6 cells transplanted into rat myocardium; assay type: in vivo; details: L6 labelled for 2 h, transplanted directly into rat myocardium
# [3] = tested on: cells with introduced L6-NIS/GFP reporter [L6-NIS/GFP 리포터가 이입된 세포]; experiment: Gamma camera and GFP imaging of labelled L6-NIS/GFP cells injected subcutaneously in nude mice; assay type: in vivo, nude mouse
smiles,measurement,setting,value
CCCCCCCCCCCCCCCCOC(=O)c1ccc([131I])cc1 [[131I]HIB],cell labelling yield,SCC-7 cells,≥ 20%
same,cell labelling yield,HeLa cells,≥ 20%
same,cell labelling yield,H9C2 cells,≥ 20%
same,cell labelling yield,L6 cells,≥ 20%
same,cell labelling yield,4T1 cells,≥ 20%
CCCCCCCCCCCCCCCCOC(=O)c1ccc([124I])cc1 [[124I]HIB],time up to which labelled cells were seen accumulated in lung (microPET),labelled cells [표지한 세포],66 h
same,accumulation in thyroid and bladder (microPET),[1],갑상선과 방광 부위에 [124I]HIB가 축적되는 것을 확인
same,accumulation of activity in liver (microPET),[1],간 위치에 활성도가 축적
same,excretion route,[1]; inferred from liver activity,간을 통하여 배출되는 것으로 여겨진다
"O=C(ON1C(=O)CCC1=O)c1ccc([18F])cc1 [[18F]FSB, N-succimidyl-4-[18F]fluorobenzoate]",loss of label from cells,cells [세포]; according to previous results,알킬레이트된 부분이 신진 대사로 방출되면서 세포에서 표지자가 빠져나가는 것으로 여겨진다
"CNC(=S)NN=CC(C)=NNC(=S)NC.[64Cu] [[64Cu]PTSM, [64Cu]pyruvaldehyde-bis-(n4-methyl-thiosemicarbazone)]",release of label from cells,cells [세포]; after incubation with cells,수 시간 후에 세포에서 떨어져 나와
same,duration of cell labelling,cells [세포]; compared with other F-18/Cu-64 labelling,좀 더 장기간 세포 표지가 가능하였다
"OC[C@H]1OC(O)[C@H]([18F])[C@@H](O)[C@@H]1O (stereo partly drawn) [[18F]FDG, 2-[18F]fluoro-2-deoxy-D-glucose]",release of label from cells,cells [세포],수 시간 후에 세포에서 떨어져 나와
CCCCCCCC/C=C\CCCCCCCCOC(=O)c1ccc([131I])cc1 [[131I]OIB],cell labelling yield,SCC-7 cells,≥ 20%
same,cell labelling yield,HeLa cells,≥ 20%
same,cell labelling yield,H9C2 cells,≥ 20%
same,period over which transplanted labelled cells were imaged by gamma camera,[2],2 weeks
same,cell labelling yield,L6 cells,≥ 20%
same,cell labelling efficiency,"L6 cells; [131I]OIB 136 μCi, 4x10^5 L6 cells in serum-free medium, room temperature, 30 min, washed twice with PBS",26%
same,time up to which GFP imaging was measurable,[3]; 1x10^7 [131I]OIB-labelled cells s.c. in each thigh and shoulder of nude mouse,14 days
same,time up to which labelled cells were visible by gamma camera,"[3]; 1x10^7 cells s.c. in each thigh and shoulder of nude mouse, gamma camera day 1 to 14",14 days
same,cell labelling yield,4T1 cells,≥ 20%
